# Results from ChEMBL document CHEMBL2074158, “Interaction of omeprazole, lansoprazole and pantoprazole with P-glycoprotein” (Naunyn Schmiedebergs Arch Pharmacol, 2001).
# Assays:
# [1] = molecular target: T1, ATP-dependent translocase ABCB1 (Homo sapiens, UniProt P08183); assay: TP_TRANSPORTER: transepithelial transport (basal to apical) in MDR1-expressing LLC-PK1 cells; format: functional, cell-based; conditions: pig
# [2] = molecular target: T1, ATP-dependent translocase ABCB1; assay: TP_TRANSPORTER: inhibition of Digoxin transepithelial transport (basal to apical) (Digoxin: 5 uM) in Caco-2 cells; format: functional, cell-based
# T1 sequence (P08183 whole entry): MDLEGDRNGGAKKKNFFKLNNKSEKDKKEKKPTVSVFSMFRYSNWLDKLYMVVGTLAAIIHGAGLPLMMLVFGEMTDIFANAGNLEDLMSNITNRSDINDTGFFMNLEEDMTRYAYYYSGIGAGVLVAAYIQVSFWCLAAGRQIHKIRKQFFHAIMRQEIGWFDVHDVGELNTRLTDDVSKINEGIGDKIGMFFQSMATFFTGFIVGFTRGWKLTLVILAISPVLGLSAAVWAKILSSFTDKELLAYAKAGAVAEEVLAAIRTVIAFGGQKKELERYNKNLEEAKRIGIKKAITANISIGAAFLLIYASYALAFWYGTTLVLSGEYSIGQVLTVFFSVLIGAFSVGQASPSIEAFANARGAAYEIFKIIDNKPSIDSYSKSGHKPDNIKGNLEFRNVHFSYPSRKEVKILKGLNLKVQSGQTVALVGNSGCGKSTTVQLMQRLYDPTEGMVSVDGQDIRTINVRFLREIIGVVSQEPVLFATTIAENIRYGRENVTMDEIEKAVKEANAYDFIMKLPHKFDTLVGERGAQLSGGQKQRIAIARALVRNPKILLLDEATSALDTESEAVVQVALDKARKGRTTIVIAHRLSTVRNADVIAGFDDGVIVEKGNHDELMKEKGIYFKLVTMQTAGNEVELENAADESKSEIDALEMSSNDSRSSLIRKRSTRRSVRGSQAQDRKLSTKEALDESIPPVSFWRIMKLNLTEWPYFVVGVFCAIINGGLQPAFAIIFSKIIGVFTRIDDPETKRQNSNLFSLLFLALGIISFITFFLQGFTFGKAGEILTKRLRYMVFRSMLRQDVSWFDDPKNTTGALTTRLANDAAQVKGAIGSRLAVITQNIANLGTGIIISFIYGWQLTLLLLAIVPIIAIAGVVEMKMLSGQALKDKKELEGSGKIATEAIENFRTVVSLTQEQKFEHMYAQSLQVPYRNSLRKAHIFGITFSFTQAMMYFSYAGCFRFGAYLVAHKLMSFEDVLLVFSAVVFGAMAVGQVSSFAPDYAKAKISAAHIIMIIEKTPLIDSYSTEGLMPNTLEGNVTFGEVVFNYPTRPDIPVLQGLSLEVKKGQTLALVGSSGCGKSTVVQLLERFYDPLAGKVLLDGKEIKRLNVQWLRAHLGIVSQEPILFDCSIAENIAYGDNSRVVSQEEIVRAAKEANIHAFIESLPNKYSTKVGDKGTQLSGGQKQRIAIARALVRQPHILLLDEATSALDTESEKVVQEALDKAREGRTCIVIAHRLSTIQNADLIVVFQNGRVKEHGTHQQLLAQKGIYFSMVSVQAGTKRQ
smiles,measurement,setting,value
Cc1c(OCC(F)(F)F)ccnc1C[S+]([O-])c1nc2ccccc2[nH]1 (stereo unspecified) [LANSOPRAZOLE],Activity,[1],substrate [+]
same,IC50,[2],62.8 µM
COc1ccc2[nH]c([S+]([O-])Cc3ncc(C)c(OC)c3C)nc2c1 (stereo unspecified) [OMEPRAZOLE],Activity,[1],substrate [+]
same,IC50,[2],17.7 µM
COc1ccnc(C[S+]([O-])c2nc3ccc(OC(F)F)cc3[nH]2)c1OC (stereo unspecified) [PANTOPRAZOLE],Activity,[1],substrate [+]
same,IC50,[2],17.9 µM
